# ChEMBL document CHEMBL4616655, “Kalparinol, a Salvialane (Isodaucane) Sesquiterpenoid Derived from Native Australian Dysphania Species That Suggests a Putative Biogenetic Link to Zerumbone” (J Nat Prod, 2020)
# Calls of active or inactive are those of the source. No cut-off for these calls is given here.
# How the values were obtained:
# NFF = assay: Cytotoxicity against human NFF cells assessed as reduction in cell viability after 6 days by SRB assay; type: cell-based; details: 144 h
# SCC-15 = assay: Cytotoxicity against human SCC15 cells assessed as reduction in cell viability after 6 days by SRB assay; type: functional, cell-based
# Nakaseomyces glabratus = assay: Antifungal activity against Candida glabrata ATCC 90030 assessed as reduction in microbial growth up to 200 uM incubated for 24 to 48 hrs; type: functional, organism-based
# Candida albicans = assay: Antifungal activity against Candida albicans ATCC 90028 assessed as reduction in microbial growth up to 200 uM incubated for 24 to 48 hrs; type: functional, organism-based
# MM96L = assay: Cytotoxicity against human MM96L cells assessed as reduction in cell viability after 6 days by SRB assay; type: functional, cell-based
# [Candida] auris [1] = Antifungal activity against Candida auris CBS 12373 assessed as reduction in microbial growth up to 200 uM incubated for 24 to 48 hrs; type: functional, organism-based; details: Candidozyma auris
# SCC-9 = assay: Cytotoxicity against human SCC9 cells assessed as reduction in cell viability after 6 days by SRB assay; type: functional, cell-based
# FaDu = assay: Cytotoxicity against human FADU cells assessed as reduction in cell viability after 6 days by SRB assay; type: functional, cell-based
# CAL-27 = assay: Cytotoxicity against human CAL27 cells assessed as reduction in cell viability after 6 days by SRB assay; type: functional, cell-based
# MCF7 = assay: Cytotoxicity against human MCF7 cells assessed as reduction in cell viability after 6 days by SRB assay; type: functional, cell-based
# SCC-25 = assay: Cytotoxicity against human SCC25 cells assessed as reduction in cell viability after 6 days by SRB assay; type: functional, cell-based
# [Candida] auris [2] = Antifungal activity against Candida auris CBS 10913 assessed as reduction in microbial growth up to 200 uM incubated for 24 to 48 hrs; type: functional, organism-based; details: Candidozyma auris
# Pichia kudriavzevii = assay: Antifungal activity against Pichia kudriavzevii ATCC 6258 assessed as reduction in microbial growth up to 200 uM incubated for 24 to 48 hrs; type: functional, organism-based
# [3] = Stability of compound in DMSO; type: physicochemical
Stability [3],Structure (SMILES),Activity (NFF),Activity (SCC-15),Activity (Nakaseomyces glabratus),Activity (Candida albicans),Activity (MM96L),Activity ([Candida] auris [1]),Activity (SCC-9),Activity (FaDu),Activity (CAL-27),Activity (MCF7),Activity (SCC-25),Activity ([Candida] auris [2]),Activity (Pichia kudriavzevii)
,C/C1=C/CC[C@@]2(C)O[C@@H]2CC(C)(C)/C=C/C1=O,Non-Toxic,inactive,inactive,inactive,inactive,inactive,inactive,inactive,inactive,inactive,inactive,inactive,inactive
Unstable,C[C@@H]1CCC[C@@]2(C)[C@H](C1=O)[C@@H](C(C)(C)O)C[C@@H]2O,,,,,,,,,,,,,
,C/C1=C\CC[C@@]2(C)O[C@@H]2CC(C)(C)/C=C/C1=O [ZERUMBONE EPOXIDE],Non-Toxic,inactive,,,inactive,,inactive,inactive,inactive,inactive,inactive,,
